≈ marks a conversion by molar mass, not a printed value. Read-outs that look alike come from different tables or passages of the source.
Legend:
[1] = system: Staphylococcus aureus 209P; assay: MIC, standard serial dilution method; assay type: cell-based; details: Mueller-Hinton agar, 37° C
[2] = system: Staphylococcus aureus Ap01; assay: MIC, standard serial dilution method; assay type: cell-based; details: resistance mechanism ANT(4'), Mueller-Hinton agar, 37° C
Bacillus subtilis PCI219 = assay: MIC, standard serial dilution method; assay type: cell-based; details: Mueller-Hinton agar, 37° C
[3] = system: Corynebacterium bovis 1810; assay: MIC, standard serial dilution method; assay type: cell-based; details: Mueller-Hinton agar, 37° C
Escherichia coli K-12 = assay: MIC, standard serial dilution method; assay type: cell-based; details: K12
Escherichia coli K-12 R5 = assay: microbe, parasite or virus in culture; assay type: cell-based; details: K12R5
[4] = system: Escherichia coli K-12 ML 1629; assay: microbe, parasite or virus in culture; assay type: cell-based; details: K12ML1629
[5] = system: Escherichia coli K-12 LA 290 R55; assay: microbe, parasite or virus in culture; assay type: cell-based; details: K12LA290R55
Escherichia coli JR225 = assay: microbe, parasite or virus in culture; assay type: cell-based; details: resistance mechanism AAC(3), Mueller-Hinton agar, 37° C
[6] = system: Escherichia coli JR66/W677; assay: microbe, parasite or virus in culture; assay type: cell-based; details: resistance mechanism APH(3')-II, ANT(2"), Mueller-Hinton agar, 37° C
Mycobacterium 607 = assay: MIC, standard serial dilution method; assay type: cell-based; details: Mueller-Hinton agar, 37° C
[7] = system: Klebsiella pneumoniae 22#3038; assay: MIC, standard serial dilution method; assay type: cell-based; details: resistance mechanism APH(3')-II, ANT(2"), Mueller-Hinton agar, 37° C
Proteus rettgeri GN 311 = assay: MIC, standard serial dilution method; assay type: cell-based; details: Providencia rettgeri, GN311; Proteus rettgeri GN 311; Mueller-Hinton agar, 37° C; read-out: MIC
Serratia marcescens = assay: MIC, standard serial dilution method; assay type: cell-based; details: Mueller-Hinton agar, 37° C
Providencia sp. Pv 16 = assay: MIC, standard serial dilution method; assay type: cell-based; details: SP.PV16, resistance mechanism AAC(2'), Mueller-Hinton agar, 37° C
[8] = system: Pseudomonas aeruginosa A3; assay: MIC, standard serial dilution method; assay type: cell-based; details: Mueller-Hinton agar, 37° C
[9] = system: Pseudomonas aeruginosa GN 315; assay: MIC, standard serial dilution method; assay type: cell-based; details: GN315; Pseudomonas aeruginosa GN 315; resistance mechanism AAC(6'); Mueller-Hinton agar, 37° C; read-out: MIC
in vivo = details: mouse, iv, pH 7
Text: Further, in order to estimate acute toxicity of the compound of the general formula (I) according to this invention, some examples of the compounds of this invention were independently dissolved in water to prepare aqueous solutions (as adjusted to pH 7 by addition of hydrochloric acid). […] The tested compounds of this invention are expressed by the same abbreviations as in Table 1. […] The comparative compounds as tested are also expressed by the same abbreviations as in Table 1.

[10] = Escherichia coli K-12, Mueller-Hinton agar, 37° C, read-out: MIC
[11] = Escherichia coli K-12 R5, resistance mechanism AAC(6'), Mueller-Hinton agar, 37° C
[12] = Escherichia coli K-12 LA 290 R55, resistance mechanism ANT(2"), Mueller-Hinton agar, 37° C
[13] = Escherichia coli K-12 ML 1629, resistance mechanism APH(3')-I, Mueller-Hinton agar, 37° C, read-out: MIC

Structure (SMILES)	MIC [1] [µg/mL]	MIC [2] [µg/mL]	MIC (Bacillus subtilis PCI219) [µg/mL]	MIC [3] [µg/mL]	MIC (Escherichia coli K-12; [10]) [µg/mL]	MIC (Escherichia coli K-12 R5; [11]) [µg/mL]	MIC ([4]; Escherichia coli) [µg/mL]	MIC [5, 12] [µg/mL]	MIC (Escherichia coli JR225) [µg/mL]	MIC [6] [µg/mL]	MIC (Mycobacterium 607) [µg/mL]	MIC [7] [µg/mL]	MIC (Proteus rettgeri GN 311) [µg/mL]	MIC (Serratia marcescens) [µg/mL]	MIC (Providencia sp. Pv 16) [µg/mL]	MIC [8] [µg/mL]	MIC [9] [µg/mL]	LD50 (in vivo) [mg/kg]	MIC ([5]; Escherichia coli) [µg/mL]	MIC [4, 13] [µg/mL]	further results
CCN[C@@H]1C[C@H](N)[C@@H](O[C@H]2OC(CN)=CC[C@H]2N)C(F)(F)[C@H]1O[C@H]1OC[C@](C)(O)[C@H](NC)[C@H]1O [5FF-Netilmicin, 5-deoxy-5,5-difluoronetilmicin]	3.12 (≈ 6.3 µM)	12.5 (≈ 25.2 µM)	0.39 (≈ 0.787 µM)	1.56 (≈ 3.15 µM)	< 0.2	50 (≈ 101 µM)	0.78 (≈ 1.57 µM)	0.39 (≈ 0.787 µM)	1.56 (≈ 3.15 µM)	0.78 (≈ 1.57 µM)	1.56 (≈ 3.15 µM)	1.56 (≈ 3.15 µM)	1.56 (≈ 3.15 µM)	6.25 (≈ 12.6 µM)	12.5 (≈ 25.2 µM)	1.56 (≈ 3.15 µM)	> 100	47	–	–	–
CN[C@@H]1[C@@H](O)[C@@H](O[C@H]2[C@H](N)C[C@H](N)[C@@H](O[C@H]3O[C@H]([C@@H](C)N)CC[C@H]3N)C2(F)F)OC[C@]1(C)O [Compound 5FF-Genta-C2, 5-deoxy-5,5-difluorogentamicin C2]	0.78 (≈ 1.61 µM)	6.25 (≈ 12.9 µM)	0.2 (≈ 0.414 µM)	0.78 (≈ 1.61 µM)	–	1.56 (≈ 3.23 µM)	0.78 (≈ 1.61 µM)	3.12 (≈ 6.45 µM)	6.25 (≈ 12.9 µM)	3.12 (≈ 6.45 µM)	0.78 (≈ 1.61 µM)	1.56 (≈ 3.23 µM)	0.78 (≈ 1.61 µM)	0.78 (≈ 1.61 µM)	6.25 (≈ 12.9 µM)	1.56 (≈ 3.23 µM)	25 (≈ 51.7 µM)	~230	–	–	MIC (Escherichia coli K-12; Escherichia coli): 0.78 µg/mL (≈ 1.61 µM)
NC[C@H]1O[C@H](O[C@@H]2[C@@H](N)C[C@@H](N)[C@H](O[C@H]3O[C@H](CO)[C@@H](O)[C@H](N)[C@H]3O)C2(F)F)[C@H](N)C[C@@H]1O [Compound 5FF-TOB, 5-deoxy-5,5-difluorotobramycin]	0.39 (≈ 0.8 µM)	25 (≈ 51.3 µM)	0.39 (≈ 0.8 µM)	1.56 (≈ 3.2 µM)	0.39 (≈ 0.8 µM)	25 (≈ 51.3 µM)	0.78 (≈ 1.6 µM)	–	0.39 (≈ 0.8 µM)	1.56 (≈ 3.2 µM)	0.39 (≈ 0.8 µM)	0.78 (≈ 1.6 µM)	< 0.2	3.12 (≈ 6.4 µM)	12.5 (≈ 25.6 µM)	< 0.2	100 (≈ 205 µM)	260	0.78 (≈ 1.6 µM)	–	–
CN[C@@H]1[C@@H](O)[C@@H](O[C@H]2[C@H](N)C[C@H](N)[C@@H](O[C@H]3O[C@H]([C@@H](C)NC)CC[C@H]3N)C2(F)F)OC[C@]1(C)O [Compound 5FF-Genta-C1, 5-deoxy-5,5-difluorogentamicin C1]	1.56 (≈ 3.14 µM)	12.5 (≈ 25.1 µM)	1.56 (≈ 3.14 µM)	3.12 (≈ 6.27 µM)	1.56 (≈ 3.14 µM)	1.56 (≈ 3.14 µM)	–	–	12.5 (≈ 25.1 µM)	0.78 (≈ 1.57 µM)	1.56 (≈ 3.14 µM)	3.12 (≈ 6.27 µM)	1.56 (≈ 3.14 µM)	1.56 (≈ 3.14 µM)	25 (≈ 50.2 µM)	6.25 (≈ 12.6 µM)	25 (≈ 50.2 µM)	~200	0.78 (≈ 1.57 µM)	1.56 (≈ 3.14 µM)	–
CN[C@@H]1[C@@H](O)[C@@H](O[C@H]2[C@H](NC(=O)[C@@H](O)CCN)C[C@H](N)[C@@H](O[C@H]3O[C@H]([C@@H](C)NC)CC[C@H]3N)C2(F)F)OC[C@]1(C)O [5FF-Genta-C1-AHB, 1-N-[(S)-4-amino-2-hydroxybutyryl]-5-deoxy-5,5-difluorogentamicin C1]	1.56 (≈ 2.61 µM)	25 (≈ 41.8 µM)	1.56 (≈ 2.61 µM)	0.78 (≈ 1.3 µM)	< 0.2	–	–	0.39 (≈ 0.651 µM)	< 0.2	3.12 (≈ 5.21 µM)	3.12 (≈ 5.21 µM)	1.56 (≈ 2.61 µM)	1.56 (≈ 2.61 µM)	3.12 (≈ 5.21 µM)	6.25 (≈ 10.4 µM)	6.25 (≈ 10.4 µM)	100 (≈ 167 µM)	–	–	1.56 (≈ 2.61 µM)	MIC (Escherichia coli K-12 R5; Escherichia coli): 0.78 µg/mL (≈ 1.3 µM)
CN[C@@H]1[C@@H](O)[C@@H](O[C@@H]2[C@@H](O)[C@H](O[C@H]3O[C@H]([C@@H](C)N)CC[C@H]3N)[C@@H](N)C[C@H]2N)OC[C@]1(C)O [Genta-C2, gentamicin C2, reference compound]	< 0.2	0.78 (≈ 1.68 µM)	< 0.2	0.39 (≈ 0.841 µM)	< 0.2	1.56 (≈ 3.37 µM)	–	12.5 (≈ 27 µM)	6.25 (≈ 13.5 µM)	25 (≈ 53.9 µM)	1.56 (≈ 3.37 µM)	12.5 (≈ 27 µM)	0.2 (≈ 0.431 µM)	0.78 (≈ 1.68 µM)	6.25 (≈ 13.5 µM)	0.39 (≈ 0.841 µM)	3.12 (≈ 6.73 µM)	~90	–	0.39 (≈ 0.841 µM)	–

From patent US5527781A, “4-O-(aminoglycosyl)- or 4,6-di-O-(aminoglycosyl)-2,5-dideoxy-5,5-difluorostreptamine derivatives” (Zaidan Hojin Biseibutsu Kagaku Kenkyu Kai, priority 1990, dated 1996)
